Data on 33 compounds can be found in patent US9073821B2, “Hydroxamic acid derivative” (priority 2010, dated 2015).

pIC50: −log10 of the molar value.

The first assay concerns the target Pseudomonas aeruginosa LpxC enzyme (Pseudomonas aeruginosa (strain ATCC 15692 / DSM 22644 / CIP 104116 / JCM 14847 / LMG 12228 / 1C / PRS 101 / PAO1), UniProt P47205). The assay can be described thus: biochemical. The following applies: class symbols A/B/C by IC50; Table 3; read-out: Enzyme inhibitory activity (inhibitory activity on Pseudomonas aeruginosa LpxC enzyme). It is filed as biochemical.
Consider `CNC(=O)[C@@](C)(C(=O)NO)N(C)C(=O)c1ccc(C#Cc2coc(CN3CCCOCC3)c2)cc1` [Compound 583, (2S)-N-hydroxy-N′,2-dimethyl-2-{methyl[(4-{[5-(1,4-oxazepan-4-ylmethyl)furan-3-yl]ethynyl}phenyl)carbonyl]amino}propanediamide], for which the pIC50 was greater than 8.00.

On to `CNC(=O)C(C(=O)NO)N(C)C(=O)c1ccc(C#Cc2ccc(COCC(C)(C)N)cc2)cc1` (stereo not drawn) [Compound 508, 2-[{[4-({4-[(2-amino-2-methylpropoxy)methyl]phenyl}ethynyl)phenyl]carbonyl}(methyl)amino]-N-hydroxy-N′-methylpropanediamide], for which the pIC50 was 7.00 to 8.00.

Still in this assay, the particulars now being: inhibitory activity on Pseudomonas aeruginosa LpxC enzyme, class symbols A/B/C; read-out: Enzyme inhibitory activity.
As for `CNC(=O)C(C(=O)NO)N(C)C(=O)c1ccc(-c2ccc(OCCCN3CC=CCC3)cc2)cc1` (stereo not drawn) [Compound 263, 2-[({4′-[3-(3,6-dihydropyridin-1(2H)-yl)propoxy]biphenyl-4-yl}carbonyl)(methyl)amino]-N-hydroxy-N′-methylpropanediamide], the pIC50 was 7.00 to 8.00.

Take `CNC(=O)C(C(=O)NO)N(C)C(=O)c1ccc(-c2ccc(C(=O)NC(C)(C)C)cc2)cc1` (stereo not drawn) [Compound 248, N′-tert-butyl-N-[1-(hydroxyamino)-3-(methylamino)-1,3-dioxopropan-2-yl]-N-methylbiphenyl-4,4′-dicarboxamide]: the pIC50 is 7.00 to 8.00.

Turning to `CNC(=O)C(C(=O)NO)N(C)C(=O)c1ccc(N2CC(c3ccccc3)C2)cc1` (stereo not drawn) [Compound 249, N-hydroxy-N′-methyl-2-{methyl[4-(3-phenylazetidin-1-yl)benzoyl]amino}propanediamide], the pIC50 is 7.00 to 8.00.

For the compound `CNC(=O)C(C(=O)NO)N(C)C(=O)c1ccc(C#Cc2cccc(CN3CCOCC3)c2)cc1` (stereo not drawn) [Compound 375, N-hydroxy-N′-methyl-2-{methyl[(4-{[3-(morpholin-4-ylmethyl)phenyl]ethynyl}phenyl)carbonyl]amino}propanediamide], the pIC50 is 7.00 to 8.00.

As to `CNC(=O)C(C(=O)NO)N(C)C(=O)c1ccc(-c2ccc(NCC3CC3CNc3ccccc3)cc2)cc1` (stereo not drawn) [Compound 103, N-hydroxy-N′-methyl-2-[methyl({4′-[({2-[(phenylamino)methyl]cyclopropyl}methyl)amino]biphenyl-4-yl}carbonyl)amino]propanediamide], the pIC50 is greater than 8.00.

`Cn1cnc(CNC(=O)C(NC(=O)c2ccc(-c3ccc(OCCO)cc3)cc2)C(=O)NO)c1` (stereo not drawn) [Compound 158, N-hydroxy-2-({[4′-(2-hydroxyethoxy)biphenyl-4-yl]carbonyl}amino)-N′-[(1-methyl-1H-imidazol-4-yl)methyl]propanediamide]: the pIC50 is greater than 8.00.

In the case of `CNC(=O)C(C(=O)NO)N(C)C(=O)c1ccc(N2Cc3ccccc3C2)cc1` (stereo not drawn) [Compound 250, 2-{[4-(1,3-dihydro-2H-isoindol-2-yl)benzoyl](methyl)amino}-N-hydroxy-N′-methylpropanediamide], the pIC50 was 7.00 to 8.00.

Turning to `CNC(=O)C(C(=O)NO)N(C)C(=O)c1ccc(-c2ccc(Cc3nn[nH]n3)cc2)cc1` (stereo not drawn) [Compound 60, N-hydroxy-N′-methyl-2-(methyl {[4′-(2H-tetrazol-5-ylmethyl)biphenyl-4-yl]carbonyl}amino)propanediamide], the pIC50 was less than 7.00.

For `CNC(=O)C(C(=O)NO)N(C)C(=O)c1ccc(C#Cc2ccc(OCC(O)CO)cc2)cc1` (stereo not drawn) [Compound 320, 2-{[(4-{[4-(2,3-dihydroxypropoxy)phenyl]ethynyl}phenyl)carbonyl](methyl)amino}-N-hydroxy-N′-methylpropanediamide], the pIC50 was greater than 8.00.

Regarding `CNC(=O)C(C(=O)NO)N(C)C(=O)c1ccc(-c2ccc3c(c2)OC(C)(C)O3)cc1` (stereo not drawn) [Compound 269, 2-{[4-(2,2-dimethyl-1,3-benzodioxol-5-yl)benzoyl](methyl)amino}-N-hydroxy-N′-methylpropanediamide], the pIC50 was greater than 8.00.

As to `CNC(=O)C(C(=O)NO)N(C)C(=O)c1ccc(-c2cccc(O)c2)cc1` (stereo not drawn) [Compound 48, N-hydroxy-2-{[(3′-hydroxybiphenyl-4-yl)carbonyl](methyl)amino}-N′-methylpropanediamide], the pIC50 is 7.00 to 8.00.

For the compound `CNC(=O)C(C(=O)NO)N(C)C(=O)c1ccc(-c2ccc(NCCCNc3ccccc3)cc2)cc1` (stereo not drawn) [Compound 100, N-hydroxy-N′-methyl-2-{methyl[(4′-{[3-(phenylamino)propyl]amino}biphenyl-4-yl)carbonyl]amino}propanediamide], the pIC50 was greater than 8.00.

Take `CNC(=O)C(C(=O)NO)N(C)C(=O)c1ccc(-c2ccc(OCCCN(C)Cc3ccccc3)cc2)cc1` (stereo not drawn) [Compound 70, 2-{[(4′-{3-[benzyl(methyl)amino]propoxy}biphenyl-4-yl)carbonyl](methyl)amino}-N-hydroxy-N′-methylpropanediamide]: the pIC50 was greater than 8.00.

With `CNC(=O)C(C(=O)NO)N(C)C(=O)c1ccc(-c2ccc(OCC(F)CN3CCOCC3)cc2)cc1` (stereo not drawn) [Compound 283, 2-[({4′-[2-fluoro-3-(morpholin-4-yl)propoxy]biphenyl-4-yl}carbonyl)(methyl)amino]-N-hydroxy-N′-methylpropanediamide], the pIC50 is greater than 8.00.

As for `O=C(NC(C(=O)NO)C(=O)NCc1ccccc1)c1ccc(-c2ccc(OCCO)cc2)cc1` (stereo not drawn) [Compound 120, N-benzyl-N′-hydroxy-2-({[4′-(2-hydroxyethoxy)biphenyl-4-yl]carbonyl}amino)propanediamide], the pIC50 was greater than 8.00.

Consider `CNC(=O)C(C(=O)NO)N(C)C(=O)c1ccc(-c2ccc(OCCN(C)c3ccccc3)cc2)cc1` (stereo not drawn) [Compound 89, N-hydroxy-N′-methyl-2-{methyl[(4′-{2-[methyl(phenyl)amino]ethoxy}biphenyl-4-yl)carbonyl]amino}propanediamide], for which the pIC50 was greater than 8.00.

With `CNC(=O)C(C(=O)NO)N(C)C(=O)c1ccc(-c2ccc(CCC(=O)N(C)C)cc2)cc1` (stereo not drawn) [Compound 266, 2-[({4′-[3-(dimethylamino)-3-oxopropyl]biphenyl-4-yl}carbonyl)(methyl)amino]-N-hydroxy-N′-methylpropanediamide], the pIC50 was 7.00 to 8.00.

Take `CNC(=O)[C@@](C)(C(=O)NO)N(C)C(=O)c1ccc(-c2ccc(OCCN3CCOCC3)cc2)cc1` [Compound 437, (2S)-N-hydroxy-N′,2-dimethyl-2-[methyl({4′-[2-(morpholin-4-yl)ethoxy]biphenyl-4-yl}carbonyl)amino]propanediamide]: the pIC50 was greater than 8.00.

For `CNC(=O)[C@@](C)(C(=O)NO)N(C)C(=O)c1ccc(C#Cc2cnn(C)c2)cc1` [Compound 433, (2S)-N-hydroxy-N′,2-dimethyl-2-[methyl({4-[(1-methyl-1H-pyrazol-4-yl)ethynyl]phenyl}carbonyl)amino]propanediamide], the pIC50 was greater than 8.00.

`COCCNC(=O)C(NC(=O)c1ccc(-c2ccc(OCCO)cc2)cc1)C(=O)NO` (stereo not drawn) [Compound 131, N-hydroxy-2-({[4′-(2-hydroxyethoxy)biphenyl-4-yl]carbonyl}amino)-N′-(2-methoxyethyl)propanediamide]: the pIC50 is 7.00 to 8.00.

On to `CNC(=O)C(C(=O)NO)N(C)C(=O)c1ccc(-c2ccccc2)s1` (stereo not drawn) [Compound 442, N-hydroxy-N′-methyl-2-{methyl[(5-phenylthiophen-2-yl)carbonyl]amino}propanediamide], for which the pIC50 is less than 7.00.

In the case of `CNC(=O)C(C(=O)NO)N(C)C(=O)c1ccc(-c2ccc(C(F)(F)F)cn2)cc1` (stereo not drawn) [Compound 297, N-hydroxy-N′-methyl-2-[methyl({4-[5-(trifluoromethyl)pyridin-2-yl]phenyl}carbonyl)amino]propanediamide], the pIC50 is less than 7.00.

As to `CNC(=O)C(C(=O)NO)N(C)C(=O)c1ccc(-c2ccc(O)cc2)cc1` (stereo not drawn) [Compound 49, N-hydroxy-2-{[(4′-hydroxybiphenyl-4-yl)carbonyl](methyl)amino}-N′-methylpropanediamide], the pIC50 is 7.00 to 8.00.

On to `CNC(=O)C(C(=O)NO)N(C)C(=O)c1ccc(-c2ccc(OCCCN3CCOCC3)c(F)c2)cc1` (stereo not drawn) [Compound 208, 2-[({3′-fluoro-4′-[3-(morpholin-4-yl)propoxy]biphenyl-4-yl}carbonyl)(methyl)amino]-N-hydroxy-N′-methylpropanediamide], for which the pIC50 was greater than 8.00.

Turning to `CCN(C(=O)c1ccc(-c2ccc(NC)cc2)cc1)C(C(=O)NC)C(=O)NO` (stereo not drawn) [Compound 235, 2-(ethyl {[4′-(methylamino)biphenyl-4-yl]carbonyl}amino)-N-hydroxy-N′-methylpropanediamide], the pIC50 is greater than 8.00.

Take `CNC(=O)C(C(=O)NO)N(C)C(=O)c1ccc(-c2ccc(C(C)O)cc2)cc1` (stereo not drawn) [Compound 261, N-hydroxy-2-[{[4′-(1-hydroxyethyl)biphenyl-4-yl]carbonyl}(methyl)amino]-N′-methylpropanediamide]: the pIC50 was 7.00 to 8.00.

As for `CNC(=O)C(C(=O)NO)N(C)C(=O)c1ccc(C#Cc2ccc(CNC3CCCCC3)cc2)cc1` (stereo not drawn) [Compound 318, 2-[{[4-({4-[(cyclohexylamino)methyl]phenyl}ethynyl)phenyl]carbonyl}(methyl)amino]-N-hydroxy-N′-methylpropanediamide], the pIC50 is 7.00 to 8.00.

Consider `CNC(=O)C(C(=O)NO)N(C)C(=O)c1ccc(-c2ccccc2)cc1C` (stereo not drawn) [Compound 21, N-hydroxy-N′-methyl-2-{methyl[(3-methylbiphenyl-4-yl)carbonyl]amino}propanediamide], for which the pIC50 was less than 7.00.

With `O=C(NC(C(=O)NO)C(=O)NCCOc1ccccc1)c1ccc(-c2ccc(OCCO)cc2)cc1` (stereo not drawn) [Compound 138, N-hydroxy-2-({[4′-(2-hydroxyethoxy)biphenyl-4-yl]carbonyl}amino)-N′-(2-phenoxyethyl)propanediamide], the pIC50 was greater than 8.00.

Consider `CNC(=O)C(C(=O)NO)N(C)C(=O)c1ccc(-c2ccc(NCCCOC)cc2)cc1` (stereo not drawn) [Compound 228, N-hydroxy-2-[({4′-[(3-methoxypropyl)amino]biphenyl-4-yl}carbonyl)(methyl)amino]-N′-methylpropanediamide], for which the pIC50 was greater than 8.00.

For `CNC(=O)C(NC(=O)c1ccc(OC(F)(F)F)cc1)C(=O)NO` (stereo not drawn) [Compound 16, N-hydroxy-N′-methyl-2-{[4-(trifluoromethoxy)benzoyl]amino}propanediamide], the pIC50 is less than 7.00.
